On the set-up of data set [1]: method as in PMID 30663371. The note with it: limonoid from Meliaceae; cited from earlier work.
Data set [2] concerns multidrug-resistant Dd2 strain of Plasmodium falciparum (PfDd2). Kind of data set: Antiplasmodial SYBR Green I fluorescence assay, PfDd2 strain. It counts as cell-based. The note with it: for IC50: Plasmodium falciparum, DD2, 72 h, read-out: Antiplasmodial Activity PfDd2 IC50 ± SD, PfDd2 strain, ring stage, 72 h. The source says:
(§1) The parasite strains used in this study are continuously cultured at the Antimicrobial and Biocontrol Agents Unit of the University of Yaoundé I, and were graciously provided by BEI Resources (https://www.beiresources.org (accessed on 16 February 2019)). They comprise the Leishmania donovani strain (1S(MHOM/SD/62/1S), the multiresistant (PfDd2), and the chloroquine-sensitive (Pf3D7-(MRA-102)) strains of Plasmodium falciparum. RPMI 1640 media supplemented with 0.2% sodium bicarbonate (Sigma Aldrich, Billings, MT, USA), 0.5% Albumax II (Gibco), 1% hypoxanthine 100X (Gibco, Billings, MT, USA), 25 mM HEPES, and 0.04% gentamicin (Sigma Aldrich) was used to sustain P. falciparum strains in sterile petri dishes. Fresh red blood cells from healthy O^+ human volunteers were also added to the medium. These cells were suspended at 4% hematocrit (v/v) and incubated at 37 °C in a humidified environment with 5% CO2. To regularly maintain the culture, fresh medium was added to the culture every day. Thin blood smears stained with 10% Giemsa were used to microscopically monitor cell-cycle transition and parasitemia under immersion oil.
(§2) The antiplasmodial efficacy of the samples was evaluated using the SYBR Green I-based fluorescence assay, as previously reported by Smilkstein et al., on a sorbitol-synchronized ring stage culture of Plasmodium falciparum (PfDd2 and Pf3D7 strains). The test relies on the development of intense fluorescence following SYBR green binding to the exposed DNA found in wells containing healthy cells. Ninety microliters of parasites prepared with 1% hematocrit and 2% parasitemia and 10 μL of test sample extracts, fractions, isolated chemicals, chloroquine, and artemisinin were each added in triplicate into wells of a flat-bottomed microplate. The final test concentration values for the samples varied from 50 μg/mL-0.08 μg/mL and 100 μg/mL-0.16 μg/mL for extract/fractions. Following a 72 h incubation at 37 °C, 100 μL of SYBR Green I solution prepared with lysis buffer (0.2 μL of 10,000 SYBR Green I per mL of lysis buffer) made of EDTA (5 mM), Tris (20 mM; pH 7.5), Triton X-100 (0.08%; v/v), and saponin (0.008%; m/v) was added to each well. Fluorescence measurements were taken using an Infinite M200 microplate reader (Tecan, MT, USA) at emission and excitation wavelengths of 538 and 485 nm, respectively.
(§3) The resulting fluorescence readings were used to calculate the growth inhibition percentages relative to the negative control for each sample and for each of the tested doses. GraphPad Prism 8.0 software was used to generate concentration-response curves from the nonlinear regression fit to determine the median inhibitory or cytotoxic concentration (IC50/CC50). The resistance index (RI) for antiplasmodial tests was calculated as the ratio between the samples’ IC50 values for the chloroquine-sensitive strain 3D7 and the multiresistant strain Dd2 [69]. Inhibitors with an RI value below 1 were considered to act preferentially on the resistant strain. Based on each inhibitor’s antiparasitic efficacy (IC50) and cell toxicity (CC50), selectivity indices (SI) were calculated [SI = CC50 (RAW)/IC50 (Parasites)]. Samples were classified as poorly toxic to RAW cells if their SI values were greater than 10 [70].

On the set-up of data set [3]: method as in PMID 36249737, PMID 20162079. Conditions: 400 mg/kg; from leaf extract of Osyris quadripartita; cited from earlier work.
The test system of data set [4] is chloroquine-sensitive 3D7 strain of Plasmodium falciparum (Pf3D7). Kind of data set: Antiplasmodial SYBR Green I fluorescence assay, Pf3D7 strain. Conditions: 3D7, Pf3D7 strain, ring stage, 72 h, read-out: Antiplasmodial Activity Pf3D7 IC50 ± SD. It counts as cell-based.
Source text: as §1, §2, §3

The nature of data set [5]: Cytotoxicity assay (resazurin) on RAW 264.7 macrophages. It counts as cell-based, murine. The note with it: mouse, RAW 264.7 macrophage cells; RAW 264.7 macrophages, 48 h incubation, resazurin; read-out: Cytotoxicity on RAW 264.7 Cells CC50 ± SD. The protocol:
The murine macrophage RAW 264.7 cell line was grown in DMEM (Dulbecco’s modified Eagle’s medium) containing 1% penicillin-streptomycin, 1% nonessential amino acids (NEA), and 10% HIFBS at 37 °C, and 5% CO2 in a humidified environment. A reverse Etaluma fluorescence microscope was used to view the cells every day, and the growth media was replaced every 72 h. At 80% confluence, cells were isolated using 0.25% Trypsine-EDTA (Gibco, MT, USA).
The murine macrophages, RAW 264.7 cells, were plated into a 96-well cell culture treated flat-bottomed plate ([…], Inc., Newton, NC 28658, USA) at a density of 10 × 10^4 cells/100 μL/well and incubated overnight to enable cell adhesion. A fresh complete medium containing serially diluted concentrations of crude extract, fractions, and compounds was used to replace the previous medium. The final assay concentration values for extracts/fractions and compounds varied from 400 μg/mL to 0.8 μg/mL and 100–0.16 μg/mL, respectively. Podophyllotoxin (Sigma-Aldrich, Munich, Germany) was used as a positive control at a maximum dose of 10 μM. After 48 h of incubation, 10 μL of resazurin solution (0.15 mg/mL dissolved in PBS) was added to each well, and the plates were incubated for an additional 4 h. Fluorescence data were finally recorded with a Magellan Infinite M200 plate reader (Tecan, Germany) at excitation and emission wavelengths of 530 nm and 590 nm, respectively.
as §3
(In general: Resazurin is reduced to fluorescent resorufin, in cell work by metabolically active cells.)

Data set [6] deals with promastigote form of Leishmania donovani (1S(MHOM/SD/62/1S)). Kind of data set: Antileishmanial resazurin-based assay on promastigotes. The note with it: for IC50: Leishmania donovani, L. donovani promastigotes, 28 °C, read-out: Antileishmanial Activity IC50 ± SD; for Antileishmanial Selectivity (SI): SI = CC50 against macrophages/IC50 against promastigotes. It counts as cell-based. The method, then:
A T-75 cm^2 cell culture flask was filled with complete Medium 199 [M199 supplemented with 10% heat-inactivated fetal bovine serum (HIFBS) and 100 IU/mL penicillin/streptomycin (Sigma, Darmstadt, Germany)] and used to grow the promastigote forms of Leishmania donovani. Every 72 h, flasks were subcultured and incubated at 28 °C.
The resazurin-based assay was used to evaluate the antileishmanial activity of the extract (100 μg/mL–0.16 μg/mL), major fractions (100 μg/mL–0.16 μg/mL), and isolated compounds (50 μg/mL–0.08 μg/mL) against the promastigote form of Leishmania donovani. Briefly, 10 μL of inhibitors at various triplicate doses (as prescribed for the antiplasmodial assay) were added to 90 μL of promastigotes from a logarithmic phase culture at a density of 4.10^5 parasites/mL. The plates were incubated for 28 h at 28 °C, and 10 μL of resazurin solution (Sigma, Darmstadt, Germany) was added. Amphotericin B (Sigma, Darmstadt, Germany) (10 μg–0.016 μg/mL) and 0.1% DMSO-treated wells were used as the […], respectively. After a further 44 h of incubation, plates were read using a Magelan Infinite M200 fluorescence plate reader (Tecan, Männedorf, Switzerland) at excitation and emission wavelengths of 530 and 590 nm, respectively.
as §3

Data set [7] has as its system promastigote. Further details: method as in PMID 24949478. Conditions: isolate from Canarium patentinervium; cited from earlier work.
Details of data set [8]: method as in PMID 30663371. The note with it: limonoid from Meliaceae; cited from earlier work. This is another data set of the same source.
Data set [9] deals with clinical isolate of P. falciparum. Details: method as in doi:10.1080/13880200601009123. Conditions: cited from earlier work.
Another data set relates to Leishmania amazonensis. Further details: method as in PMID 21343887. Conditions: cited from earlier work.
Data set [10] deals with promastigote. Details: method as in PMID 15070160. The note with it: from Pourouma guianensis; cited from earlier work.
The next data set concerns amastigote. Details: method as in PMID 15070160. The note with it: from Pourouma guianensis; cited from earlier work.

Converted amounts (≈) assume the structure as drawn.

This is an account of results in publication PMC10609173, “Antiplasmodial and Antileishmanial Activities of a New Limonoid and Other Constituents from the Stem Bark of Khaya senegalensis” (Molecules, 2023).

The term IC50 denotes the point on the concentration scale where inhibition reaches its midpoint. One may read the CC50 as the concentration that lowers cell viability or growth by half.

Take trigilgianin: the “IC50, antileishmanial activity” value in data set [1] is 6.044 µg/mL.
With `Oc1cc(O)c2c(c1)O[C@H](c1ccc(O)c(O)c1)[C@@H](O)C2` [Catechin (9), catechin], in [2] (PfDd2 strain, ring stage, 72 h), the “Antiplasmodial Activity PfDd2 IC50 ± SD” value was found to be 2.93 ± 0.02 µg/mL. Besides, the figures for the IC50 in data set [2], in data set [4] and in [6] were 2.95 µg/mL (≈ 10.2 µM), 111.96 ± 0.04 µg/mL (≈ 386 µM) and 27 ± 0.7 µg/mL (≈ 92.9 µM), respectively. The “antimalarial effect, suppression value” in [3] is reported as 64.26%. The CC50 at 48 h in data set [5] was greater than 400 µg/mL. For the same compound, in data set [6], the “Antileishmanial Selectivity (SI)” value is greater than 14.83. In the data set on promastigote [7], the “IC50, antipromastigote activity” value was 478.93 ± 0.28 µg/mL (≈ 1650 µM).
Consider `CC(=O)O[C@@H]1C[C@H]2C(C)(C)OC(=O)C=C[C@]2(C)[C@H]2CC[C@@]3(C)[C@@H](c4ccoc4)OC(=O)[C@H]4O[C@]43[C@@]21C` [7α-obacunyl acetate], for which the “IC50, antiplasmodial activity” value in [8] is 5.14 µg/mL.
As to `CC1(C)CC[C@]2(C(=O)O)CC[C@]3(C)C(=CC[C@@H]4[C@@]5(C)CC[C@H](O)C(C)(C)[C@@H]5CC[C@]43C)[C@@H]2C1` [Oleanolic acid (7), oleanolic acid], the results for the IC50 in data set [2], in data set [4] and in data set [6] were 43.6 ± 0.73 µg/mL (≈ 95.4 µM), 93.58 ± 0.92 µg/mL (≈ 205 µM) and 30.6 ± 0.67 µg/mL (≈ 67.1 µM), respectively. For the same compound, the “IC50, growth of clinical isolate of P. falciparum” value in [9] was 15.2 µg/mL. The “IC50, growth of Leishmania amazonensis” value in the data set with Leishmania amazonensis is 439.5 µg/mL. In data set [5], the CC50 at 48 h was greater than 400 µg/mL. Further, the “Antileishmanial Selectivity (SI)” value in data set [6] is “˃13.06”. The “IC50, antipromastigote effect” value in the data set on promastigote [10] was 10 µg/mL (≈ 21.9 µM). The “IC50, antiamastigote inhibitory activity” value in the data set with amastigote is 27 µg/mL (≈ 59.1 µM).
